In patent US12692232B2, “Indole carboxamide compound, preparation therefor and use thereof” (NANJING RUISHUNING MEDICAL TECHNOLOGY CO., LTD., priority 2021, dated 2026):

Molecular target: T1, TRPC6 channel (Homo sapiens, UniProt Q9Y210)
T1 sequence (Q9Y210 1-931): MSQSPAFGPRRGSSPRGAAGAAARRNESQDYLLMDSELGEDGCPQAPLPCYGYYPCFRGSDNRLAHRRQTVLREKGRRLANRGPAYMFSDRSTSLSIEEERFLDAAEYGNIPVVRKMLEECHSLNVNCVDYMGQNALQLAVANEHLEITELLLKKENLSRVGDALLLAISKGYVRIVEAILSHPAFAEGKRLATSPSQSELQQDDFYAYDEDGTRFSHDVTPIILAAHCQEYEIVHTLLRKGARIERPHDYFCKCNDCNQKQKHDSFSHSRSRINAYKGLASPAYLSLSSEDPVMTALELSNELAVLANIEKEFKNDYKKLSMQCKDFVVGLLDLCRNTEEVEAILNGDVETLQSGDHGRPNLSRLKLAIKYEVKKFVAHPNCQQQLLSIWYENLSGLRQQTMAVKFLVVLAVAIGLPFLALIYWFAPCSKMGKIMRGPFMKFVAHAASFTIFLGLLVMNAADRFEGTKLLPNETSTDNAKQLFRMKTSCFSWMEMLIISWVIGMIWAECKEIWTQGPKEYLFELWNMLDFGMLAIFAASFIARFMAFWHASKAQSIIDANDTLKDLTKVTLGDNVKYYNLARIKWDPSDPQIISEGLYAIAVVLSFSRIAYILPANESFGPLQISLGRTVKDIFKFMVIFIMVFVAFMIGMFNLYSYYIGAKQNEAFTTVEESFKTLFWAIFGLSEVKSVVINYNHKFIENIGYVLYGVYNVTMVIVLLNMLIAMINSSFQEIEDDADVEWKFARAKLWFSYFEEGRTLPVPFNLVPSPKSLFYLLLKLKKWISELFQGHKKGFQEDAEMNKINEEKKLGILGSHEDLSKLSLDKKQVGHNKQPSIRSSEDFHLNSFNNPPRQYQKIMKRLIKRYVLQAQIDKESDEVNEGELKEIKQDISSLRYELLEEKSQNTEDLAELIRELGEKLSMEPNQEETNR
Assay: Inhibition of TRPC6 channel-mediated Ca2+ entry in HEK293hTRPC6 cells (Fura-2/AM, single concentration)
Type: cell-based
Parameters: expressed in transfected cells; host or cells: HEK293 (lentiviral transduction, puromycin selection)
Details: compound 80 μM, OAG 80 μM; for inhibition at 80 µM: read-out: inhibition of Ca2+ entry into the cells via TRPC6 channels compared with the solvent control group
Description: The inhibitory effect of the compounds of the present invention (as exemplified by Compound 1-1 obtained in Example 1) on TRPC6 channel-mediated Ca^2+ entry was determined using HEK293hTRPC6 as a tool cell overexpressing TRPC6 protein. The method was as follows:
Establishment of HEK293hTRPC6, a tool cell overexpressing TRPC6 protein: human embryonic kidney cells HEK293 were placed in DMEM culture medium (containing 10% inactivated fetal bovine serum, 100 U-mL^−1 penicillin, and 100 mg-L^−1 streptomycin) and cultured at 37° C. in a 5% CO2 incubator. Cells in the logarithmic growth phase were harvested at 50% and incubated with 25 μL of LV105-TRPC6 lentiviral particle suspension for 24 hours, and then the medium was changed. The experiment included a negative control group (no-load lentivirus) and a blank control group. The medium containing 2 μg/mL puromycin was changed after 48 h of infection until the cells in the blank group died. Western Blot assay was performed to detect the expression of TRPC6 protein in the cells to verify the successful construction of HEK293hTRPC6 cell.
Determination of the effect of the compounds on changes in intracellular calcium ion concentration ([Ca^2+]i) in HEK293hTRPC6 cells: HEK293hTRPC6 cell suspension was added to a 24-well plate with a coverslip and incubated at 37° C. in a 5% CO2 incubator for 24 h. The cell crawls were then removed and placed in the fluorescent dye Fura-2/AM, and incubated for 20 min at room temperature away from light. The slides were placed in the center of the bath, perfused with calcium-free Tyrode's solution for 5 min and fixed on the stage of an inverted fluorescence microscope. […] Fluorescence intensity was measured at different excitation wavelengths (340 nm, 380 nm) using a TILL Ion Imaging system (TILLvisION), and the value of fluorescence intensity emitted by intracellular fluorescent probe at different excitation wavelengths was substituted into the formula: [Ca^2+]i=Kd×β×(R−Rmin)/[…]. In the formula, R represents the experimentally determined fluorescence ratio (F340/F380); Kd represents the dissociation constant for the reaction of Fura-2/AM with Ca^2+, which is 386 nmol/L under physiological conditions; Rmax represents the F340/F380 when Ca^2+ is saturated (all Fura-2/AM is bound to Ca^2+); Rmin represents the F340/F380 when there is no Ca^2+; and β represents the ratio of fluorescence intensities at 380 nm in the absence of Ca^2+ and when Ca^2+ is saturated.
Experimental results: the amount of TRPC6-mediated Ca^2+ entry under conditions of open TRPC6 channels and the presence of extracellular Ca^2+ was measured, and the actual biological activity of the compounds was assessed by comparison with the solvent control.

Row | Compound | amount of TRPC6-mediated Ca2+ entry | inhibition at 80 µM [%]
1 | Cn1c(C(=O)NCCC(=O)O)cc2ccccc21 [3-[(1-methyl-1H-indole-2-carbonyl)amino]propionic acid, reference compound] | 0.10±0.01 | 53.9
2 | CC(=O)OCCCNC(=O)c1c(C=O)c2ccccc2n1C [compound 1-1, propyl 3-[(3-formyl-1-methyl-1H-indole-2-carbonyl)amino]acetate] | 0.06±0.01 | 79.9
